We go through five compounds from patent US10947188B2, “Small molecule ferroptosis inducers” (THE TRUSTEES OF COLUMBIA UNIVERSITY IN THE CITY OF NEW YORK, priority 2016, dated 2021).

Assay [1] is described as follows: Cobalt (II) binding assay in vitro (absorbance spectrum). The following applies: absorbance 300-700 nm. Here is the method:
For each cluster I compound (CIL13, −52, and −64), prepared two-fold dilution series with DMSO. We added 30 μL per well of either water or 10 μM cobalt (II) chloride solution to each well of a 384-well plate. Dilution series of each compound in DMSO were added by 10 μL per well. After solutions had been mixed by shaking of the plate using a Victor 3 plate reader (PerkinElmer), absorbance was scanned between 300 and 700 nm for each compound. Finally the following Absorbance value for each compound was plotted (see FIG. 9B):
[formula] where Abs is the absorbance at each wavelength. Search of Commercially Available Structural Analogs of CIL41/70.

The subject of assay [2] is HT-1080 cells. The assay can be described thus: Cell viability assay (Alamar Blue), lethal compounds with or without modulators. The class given is cell-based. The conditions noted are these: HT-1080 cells; for effect of ferroptosis inhibitors (α-tocopherol, deferoxamine) on lethality: cotreatment. A digest of the protocol: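 HT-1080 cells, 1,000 per well, given twofold 12-point lethal compound series at seeding, 24 h at 37 °C; modulators (100 nM selenite, 1 µM cerivastatin, 100 µg/mL mevalonate) added 24 h before. Alamar Blue 6 h, fluorescence 530/590; viability normalized to vehicle (or modulator) and media wells, typically biological triplicate.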

For assay [3], the system named is BJeLR, DRD, BJeHLT, and BJeH. Put plainly: Viability of four engineered BJ cell lines (HRAS G12V selectivity). It counts as cell-based, human. The following applies: 48 h.
Another assay deals with HT-1080 or BJeLR cells. The assay can be described thus: Analysis of ROS generation (H2-DCFDA flow cytometry). It counts as cell-based. Here is the method:
Grew 200,000 HT-1080 or BJeLR cells in six-well plates at 37° C. for 16 h. Cells were treated with test compounds, trypsinized, pelleted, and washed once with PBS. For lipophilic or aqueous ROS detection, cells were re-suspended in Hanks' Balanced Salt Solution (HBSS; Life Technologies) containing test compounds as well as C11-BODIPY(581/591) (2 μM) or H2-DCFDA (25 μM), respectively (Life Technologies), and incubated for 10 min at 37° C. Cells were then pelleted, re-suspended in 500 μL HBSS, strained through a 40-μm cell strainer (BD Falcon), and analyzed using a BD Accuri C6 flow cytometer (BD Biosciences). Both dyes were measured in the FL1 channel. Experiments were done in biological triplicates.

The subject of another assay is GPX4. Put plainly: Western blotting of GPX4 protein abundance. It counts as cell-based, human. As to the method: Seeded 300,000 cells (HT-1080 or BJeLR) per well in six-well plates. For cotreatment, ferroptosis inducers (10 μM erastin for 11 h, 0.5 μM (1S, 3R)-RSL3 for 2 h, or 5 μM FIN56) and 100 μM α-tocopherol were added to cell culture at the same time, and cells were then incubated for 10 h (FIG. 2E). When other death-modulating compounds (100 nM sodium selenite, 1 μM cerivastatin, 100 μg/mL mevalonic acid, 30 μM C75, or 2 μM cerulenin) were used in cotreatments, cells were pre-incubated with the modulators for 24 h before being treated with ferroptosis inducers for 6 h. Cell lysis, SDS-PAGE and protein transfer to PVDF membrane were performed as previously described (Dixon et al. 2012). We used the following antibodies: anti-human α-tubulin (Santa Cruz Biotechnology, sc-32293, 1:10,000 dilution), anti-human GPX4 (Abcam, ab41787, 1:2,000 dilution), anti-human GPX1 (R&D Systems, AF3798, 1:1,000 dilution), and anti-human SQS (Abcam, ab109723 for full-length, ab195046 for truncated, both at 1:1,000 dilution). Secondary antibodies were from LI-COR (1:3,000 dilution). The PVDF membranes labeled with primary and secondary antibodies were scanned using an Odyssey Imaging System (LI-COR). Experiments were performed in biological triplicates, and the mean±s.e. of intensity was plotted.
(In western blotting, separated proteins are transferred to a membrane and probed.)

For another assay, the system named is GPX4 transcripts. The assay can be described thus: Reverse-transcription quantitative PCR of GPX4 transcripts. It counts as cell-based. The conditions noted are these: 5 μM FIN56. Here is the method:
Trypsinized 0.2 to 1 million cells grown in six-well dishes, pelleted them, resuspended them in Buffer RLT (Qiagen), and homogenized them with QlAshredder (Qiagen). RNA was further extracted using the RNeasy Mini Kit (Qiagen). We converted 2 μg of extracted RNA from each sample into cDNA using TaqMan reverse-transcription reagents (Life Technologies). qPCR primers were designed to detect all splicing variants using Primer Express 2.0 (Applied Biosystems). The designed primers were confirmed to amplify only the designated gene transcripts using in silico PCR (see, e.g., http://genome.ucsc.edu/cgi-bin/hgPcr). For qPCR reactions, primers, cDNA, and Power SYBR Green PCR Master Mix (Applied Biosystems) were mixed, and quantitation was performed using a StepOnePlus real-time PCR system (Applied Biosystems). Experiments were done in biological triplicates.

For assay [4], the system named is HT-1080 cells. Put plainly: Flow cytometry of intracellular Ca(II) levels (Fluo-4). It counts as cell-based. The conditions noted are these: 2 μM FIN56; over the course of 9 h. An excerpt:
The third compound set examined was suppressors of both ferroptosis and necrosis. These were predicted to target three proteins: alpha-1 (α1) adrenergic receptors 1B and 1D and calmodulin 3. Activation of α1 activates phospholipase C and increases Ca(II). Calmoduline 3 is a calcium-binding protein. Since all three proteins are relevant to calcium signaling, we hypothesized that calcium mediates FIN56-induced ferroptosis.
A general note: In flow cytometry, cells or beads pass a laser one at a time.

Where a SMILES comes first, the peptide text is derived from it. The star is where a group is joined. Cbz = O=C(OCc1ccccc1)*

`Cc1cccnc1Nc1nc(-c2ccccn2)cs1` [CIL13]: the “binding to cobalt (II) in vitro” value in assay [1] was “bound to cobalt (II) in vitro”.

For the compound `N/C(=N\OC(=O)C12CC3CC(CC(C3)C1)C2)c1ccccc1` [CIL41], the “effect of ferroptosis inhibitors (α-tocopherol, deferoxamine) on lethality” value in the assay on HT-1080 cells [2] is “strongly suppressed by ferroptosis inhibitors”. For the same compound, the “oncogenic RAS selectivity in the BJ engineered cell line series” value in assay [3] is “did not exhibit oncogenic RAS selectivity”. The “ROS accumulation detected using H2-DCFDA” value in the assay with HT-1080 or BJeLR cells was “induced ROS accumulation”.

Consider `O=S(=O)(NC1CCCCC1)c1ccc2c(c1)C(=NO)c1cc(S(=O)(=O)NC3CCCCC3)ccc1-2` [FIN56, N2,N7-dicyclohexyl-9-(hydroxyimino)-9H-fluorene-2,7-disulfonamide], for which the “effect of ferroptosis inhibitors (α-tocopherol, deferoxamine) on lethality” value in the assay with HT-1080 cells [2] is “fully suppressed”. In addition, the “suppression of lethality by mevalonate-pathway modulators (FPP, YM-53601, idebenone) and α-tocopherol” value with HT-1080 cells [2] (modulatory profiling scheme) is “potently suppressed by all the compounds”. For the same compound, the “oncogenic RAS selectivity in the BJ engineered cell line series” value in assay [3] is “greater oncogenic RAS selectivity”. Also, the “potency compared to CIL56” value in assay [3] (BJ cell line series) is listed as “greater potency”. Besides, in the assay on HT-1080 or BJeLR cells (BJeLR, 5 μM FIN56 vs 0.5 μM (1S, 3R)-RSL3, 25 μM H2-DCFDA), the “kinetics of ROS accumulation compared to (1S, 3R)-RSL3” value is given as “slower to induce the accumulation of ROS”. The “abundance of GPX4 protein” value in the assay with GPX4 (BJeLR, cotreatment with 100 μM α-tocopherol, 10 h, FIN56 5 μM) was “substantially decreased”. In the assay on GPX4 transcripts, the GPX4 transcript level entry is “increased, rather than decreased”. The “intracellular Ca(II) levels (Fluo-4)” value in the assay on HT-1080 cells [4] is listed as “increased intracellular Ca(II) levels”.

As for `CC(C)C[C@@H](C=O)NC(=O)[C@H](CC(C)C)NC(=O)[C@H](CC(C)C)NC(=O)OCc1ccccc1` [MG132, reference compound] (Cbz-Leu-Leu-Leu-aldehyde), the “effect on FIN56-induced decrease of GPX4 protein abundance” value in the assay with GPX4 (5 μM FIN56) is on record as “did not inhibit GPX4 degradation significantly”.

As to `C[C@@H]1C[C@@H]([C@H](O)CC2CC(=O)NC(=O)C2)C(=O)[C@@H](C)C1` [cycloheximide, Cycloheximide, reference compound], the “amount of GPX4 protein compared to α-tubulin after translation inhibition” value in the assay with GPX4 is reported as “did not show substantially decreased amounts of GPX4 protein”.
